The record followed here is US11753407B2, “Compounds for treating spinal muscular atrophy” (PTC Therapeutics, Inc., priority 2012, dated 2023).

For series [1], the system named is SMN2 minigene mRNA (SMN2-A minigene) in HEK293H cells. Put plainly: SMN2 minigene mRNA splicing RT-qPCR assay in cultured cells. The conditions noted are these: Homo sapiens, HEK293-H; concentration increasing full length SMN2 mRNA 1.5-fold relative to vehicle-treated cells; HEK293H cells with SMN2-A minigene, 24 hours, 7-point concentration data; read-out: EC1.5x for production of full length SMN2 mRNA. Format: cell-based, human. Put shortly:
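HEK293H cells stably carrying SMN2-A minigene treated with compounds (7-point, 3.16-fold dilutions, duplicates) for 24 h at 37 °C. Full-length exon 7-containing minigene mRNA measured by multiplex RT-qPCR with GAPDH, normalized and expressed relative to vehicle (modified ΔΔCt); EC1.5× is concentration giving 1.5-fold increase.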
Background: In qPCR the cycle at which signal appears reflects the starting amount.

Series [2] has as its system Smn protein in SMA patient fibroblast cells (GM03813). Put plainly: Smn protein assay in cultured cells (SMN HTRF). Format: cell-based, human. The conditions noted are these: SMA patient fibroblast cells, 48 hours; for EC1.5x for Smn protein expression: 7-point concentration curve, SMN HTRF, concentration producing 1.5 times Smn protein vs DMSO vehicle control; for maximum fold (Fold) increase of Smn protein: 7-point concentration data, fold relative to vehicle control. Summed up: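 SMA patient fibroblasts (5,000/well, DMEM-10% FBS) treated 48 h at 37° C with 7-point, 3.16-fold compound series in triplicate; lysates read by SMN HTRF (665/620 nm ratio). Fold Smn increase over DMSO vehicle derived; EC1.5× is concentration giving 1.5-fold Smn, with maximum fold also reported.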
(TR-FRET usually uses a lanthanide donor and a delayed reading to cut background.)

In the case of `Cc1cn2nc(-c3cc(=O)n4cc(C5=CCNCC5)cc(C)c4n3)cc2c(C)n1` [Compound 480, 2-(4,6-dimethylpyrazolo[1,5-a]pyrazin-2-yl)-9-methyl-7-(1,2,3,6-tetrahydropyridin-4-yl)-4H-pyrido[1,2-a]pyrimidin-4-one], the melting point was over 300 °C. For the same compound, in series [1], the EC (1.5-fold increase) was under 0.1 µM. For the same compound, in series [2], the “EC1.5x for Smn protein expression” value is given as “**** (an EC1.5x≤0.3 μM is indicated by four stars (****))” and the “maximum fold (Fold) increase of Smn protein” value (“maximum fold (Fold) increase” for short) is reported as “***** (a fold increase >1.65 is indicated by five stars (*****))”.

Regarding `Cc1cn2nc(-c3cc(=O)n4cc(C5=CCN(C)CC5)ccc4n3)cc2cn1` [Compound 484, 2-(6-methylpyrazolo[1,5-a]pyrazin-2-yl)-7-(1-methyl-1,2,3,6-tetrahydropyridin-4-yl)-4H-pyrido[1,2-a]pyrimidin-4-one], the melting point was 126 to 128 °C. Further, the EC (1.5-fold increase) in series [1] is under 0.1 µM. In series [2], the “EC1.5x for Smn protein expression” value is recorded as “**** (an EC1.5x≤0.3 μM is indicated by four stars (****))” and the “maximum fold (Fold) increase” value was “***** (a fold increase >1.65 is indicated by five stars (*****))”.

The compound `Cc1cc2cc(-c3cc(=O)n4cc(N5CCN(C)CC5)ccc4n3)oc2c(C)n1` [Compound 487, 2-(5,7-dimethylfuro[2,3-c]pyridin-2-yl)-7-(4-methylpiperazin-1-yl)-4H-pyrido[1,2-a]pyrimidin-4-one] had a melting point of 256 to 258 °C. The EC (1.5-fold increase) in series [1] was 0.1 to 0.3 µM. In addition, in series [2], the “EC1.5x for Smn protein expression” value is listed as “**** (an EC1.5x≤0.3 μM is indicated by four stars (****))”; the “maximum fold (Fold) increase” value is “**** (a fold increase between >1.5 and ≤1.65 is indicated by four stars (****))”.

Compound `Cc1cc2cc(-c3cc(=O)n4cc(N5CCN[C@@H](C)C5)ccc4n3)oc2c(C)n1` [Compound 488, 2-(5,7-dimethylfuro[2,3-c]pyridin-2-yl)-7-[(3S)-3-methylpiperazin-1-yl]-4H-pyrido[1,2-a]pyrimidin-4-one] came in with a melting point of 202 to 204 °C. Further, in series [1], the EC (1.5-fold increase) is under 0.1 µM. For the same compound, in series [2], the “EC1.5x for Smn protein expression” value is given as “**** (an EC1.5x≤0.3 μM is indicated by four stars (****))”; the “maximum fold (Fold) increase” value is “**** (a fold increase between >1.5 and ≤1.65 is indicated by four stars (****))”.

The compound `CN1CCN(c2ccc3nc(-c4ccc5c(cnn5C)c4)cc(=O)n3c2)CC1` [Compound 489, 2-(1-methyl-1H-indazol-5-yl)-7-(4-methylpiperazin-1-yl)-4H-pyrido[1,2-a]pyrimidin-4-one] had a melting point of 194 to 196 °C. Besides, in series [1], the EC (1.5-fold increase) lay within 0.1 to 0.3 µM. In addition, in series [2], the “EC1.5x for Smn protein expression” value is “** (an EC1.5× between >1 μM and ≤3 μM is indicated by two stars (**))”; the “maximum fold (Fold) increase” value was “**** (a fold increase between >1.5 and ≤1.65 is indicated by four stars (****))”.

Turning to `Cn1ncc2cc(-c3cc(=O)n4cc(N5CCNCC5)ccc4n3)ccc21` [Compound 490, 2-(1-methyl-1H-indazol-5-yl)-7-(piperazin-1-yl)-4H-pyrido[1,2-a]pyrimidin-4-one], the melting point is 206 to 208 °C. Also, the EC (1.5-fold increase) in series [1] is under 0.1 µM. For the same compound, in series [2], the “EC1.5x for Smn protein expression” value is “*** (an EC1.5× between >0.3 μM and ≤1 μM is indicated by three stars (***))”; the “maximum fold (Fold) increase” value is listed as “***** (a fold increase >1.65 is indicated by five stars (*****))”.

Compound `CN(C)C1CCN(c2ccc3nc(-c4ccc5c(cnn5C)c4)cc(=O)n3c2)CC1` [Compound 491, 7-[4-(dimethylamino)piperidin-1-yl]-2-(1-methyl-1H-indazol-5-yl)-4H-pyrido[1,2-a]pyrimidin-4-one] gave a melting point of 209 to 212 °C. Also, the EC (1.5-fold increase) in series [1] is 0.3 to 1 µM. Moreover, in series [2], the “EC1.5x for Smn protein expression” value was “** (an EC1.5× between >1 μM and ≤3 μM is indicated by two stars (**))”; the “maximum fold (Fold) increase” value is “**** (a fold increase between >1.5 and ≤1.65 is indicated by four stars (****))”.

`CCN1CC=C(c2ccc3nc(-c4ccc5nc(C)oc5c4)cc(=O)n3n2)CC1` [Compound 493, 7-(1-ethyl-1,2,3,6-tetrahydropyridin-4-yl)-2-(2-methyl-1,3-benzoxazol-6-yl)-4H-pyrimido[1,2-b]pyridazin-4-one] registered a melting point of 205 to 207 °C. Further, in series [1], the EC (1.5-fold increase) is under 0.1 µM. For the same compound, in series [2], the “EC1.5x for Smn protein expression” value is “*** (an EC1.5× between >0.3 μM and ≤1 μM is indicated by three stars (***))”; the “maximum fold (Fold) increase” value was “**** (a fold increase between >1.5 and ≤1.65 is indicated by four stars (****))”.

On to `CCN1CCN(c2ccc3nc(-c4cc(Cl)c5nc(C)cn5c4)cc(=O)n3c2)CC1` [Compound 494, 2-(8-chloro-2-methylimidazo[1,2-a]pyridin-6-yl)-7-(4-ethylpiperazin-1-yl)-4H-pyrido[1,2-a]pyrimidin-4-one], for which the melting point lay within 264 to 268 °C. Further, the EC (1.5-fold increase) in series [1] was under 0.1 µM. For the same compound, in series [2], the “EC1.5x for Smn protein expression” value was “**** (an EC1.5x≤0.3 μM is indicated by four stars (****))”; the “maximum fold (Fold) increase” value is “**** (a fold increase between >1.5 and ≤1.65 is indicated by four stars (****))”.

As for `CCN1CCN(c2ccc3nc(-c4cc(Cl)c5nc(C)cn5c4)cc(=O)n3c2)C[C@H]1C` [Compound 495, 2-(8-chloro-2-methylimidazo[1,2-a]pyridin-6-yl)-7-[(3R)-4-ethyl-3-methylpiperazin-1-yl]-4H-pyrido[1,2-a]pyrimidin-4-one], the melting point was 239 to 245 °C. Also, in series [1], the EC (1.5-fold increase) was under 0.1 µM. In series [2], the “EC1.5x for Smn protein expression” value was “**** (an EC1.5x≤0.3 μM is indicated by four stars (****))” and the “maximum fold (Fold) increase” value is recorded as “***** (a fold increase >1.65 is indicated by five stars (*****))”.

Regarding `CCN1CCN(c2ccc3nc(-c4cc(Cl)c5nc(C)cn5c4)cc(=O)n3c2)C[C@@H]1C` [Compound 496, 2-(8-chloro-2-methylimidazo[1,2-a]pyridin-6-yl)-7-[(3S)-4-ethyl-3-methylpiperazin-1-yl]-4H-pyrido[1,2-a]pyrimidin-4-one], the melting point lay within 234 to 245 °C. The EC (1.5-fold increase) in series [1] was under 0.1 µM. Further, in series [2], the “EC1.5x for Smn protein expression” value is reported as “**** (an EC1.5x≤0.3 μM is indicated by four stars (****))” and the “maximum fold (Fold) increase” value is reported as “***** (a fold increase >1.65 is indicated by five stars (*****))”.

With `Cc1cn2cc(-c3cc(=O)n4cc(N5CCN(C(C)C)[C@H](C)C5)ccc4n3)cc(Cl)c2n1` [Compound 497, 2-(8-chloro-2-methylimidazo[1,2-a]pyridin-6-yl)-7-[(3R)-3-methyl-4-(propan-2-yl)piperazin-1-yl]-4H-pyrido[1,2-a]pyrimidin-4-one], the melting point is 278 to 281 °C. The EC (1.5-fold increase) in series [1] is under 0.1 µM. Also, in series [2], the “EC1.5x for Smn protein expression” value was “*** (an EC1.5× between >0.3 μM and ≤1 μM is indicated by three stars (***))”; the “maximum fold (Fold) increase” value is “**** (a fold increase between >1.5 and ≤1.65 is indicated by four stars (****))”.

`Cc1cn2cc(-c3cc(=O)n4cc(N5CCN(C(C)C)[C@@H](C)C5)ccc4n3)cc(Cl)c2n1` [Compound 498, 2-(8-chloro-2-methylimidazo[1,2-a]pyridin-6-yl)-7-[(3S)-3-methyl-4-(propan-2-yl)piperazin-1-yl]-4H-pyrido[1,2-a]pyrimidin-4-one] registered a melting point of 264 to 270 °C. Also, the EC (1.5-fold increase) in series [1] was under 0.1 µM. In series [2], the “EC1.5x for Smn protein expression” value is “**** (an EC1.5x≤0.3 μM is indicated by four stars (****))” and the “maximum fold (Fold) increase” value is given as “***** (a fold increase >1.65 is indicated by five stars (*****))”.

`Cc1nc2ccc(-c3cc(=O)n4nc(C5CCNCC5)ccc4n3)cc2o1` [Compound 499, 2-(2-methyl-1,3-benzoxazol-6-yl)-7-(piperidin-4-yl)-4H-pyrimido[1,2-b]pyridazin-4-one] came in with a melting point of 126 to 128 °C. Besides, in series [1], the EC (1.5-fold increase) was under 0.1 µM. In addition, in series [2], the “EC1.5x for Smn protein expression” value was “**** (an EC1.5x≤0.3 μM is indicated by four stars (****))” and the “maximum fold (Fold) increase” value is on record as “***** (a fold increase >1.65 is indicated by five stars (*****))”.

Take `Cc1nc2ccc(-c3cc(=O)n4nc(C5CCN(C)CC5)ccc4n3)cc2o1` [Compound 500, 2-(2-methyl-1,3-benzoxazol-6-yl)-7-(1-methylpiperidin-4-yl)-4H-pyrimido[1,2-b]pyridazin-4-one]: the melting point lay in the range of 272 to 275 °C. In addition, the EC (1.5-fold increase) in series [1] was in the range of 0.1 to 0.3 µM. Further, in series [2], the “EC1.5x for Smn protein expression” value was “*** (an EC1.5× between >0.3 μM and ≤1 μM is indicated by three stars (***))”; the “maximum fold (Fold) increase” value is given as “***** (a fold increase >1.65 is indicated by five stars (*****))”.

Regarding `CCN1CCC(c2ccc3nc(-c4ccc5nc(C)oc5c4)cc(=O)n3n2)CC1` [Compound 501, 7-(1-ethylpiperidin-4-yl)-2-(2-methyl-1,3-benzoxazol-6-yl)-4H-pyrimido[1,2-b]pyridazin-4-one], the melting point was 284 to 286 °C. In addition, the EC (1.5-fold increase) in series [1] was in the range of 0.1 to 0.3 µM. In addition, in series [2], the “EC1.5x for Smn protein expression” value was “*** (an EC1.5× between >0.3 μM and ≤1 μM is indicated by three stars (***))”; the “maximum fold (Fold) increase” value is reported as “***** (a fold increase >1.65 is indicated by five stars (*****))”.

As a reminder, the melting point is the temperature, or range, at which the solid turns liquid.
